{
  "source": "patent US20100068147A1",
  "about": "“DENGUE DIAGNOSIS AND TREATMENT” (Agency for Science , Technology and Research, priority 2006, published 2010)",
  "key": {"[1]": {"target": "chymotrypsin-like activity (Homo sapiens, UniProt P28074)", "settings": "cited from earlier work"}, "dengue virus TSV01": {"test_system": "dengue virus TSV01", "assay": "Plaque assay of supernatants of HepG2 cells infected with dengue virus TSV01 in the presence of ubiquitin-proteasome inhibitors", "type": "cell-based, dengue virus serotype 2", "settings": "for virus replication in the HepG2 cell line by plaque assay of the cell culture supernatants: FIG. 4A, two days after infection, MG-132 0.4 and 0.6 μM, ALLN 10 and 15 μM, MOI 10, vs DMSO alone; for virus replication in the HepG2 cell line by plaque assay of the cell culture supernatants / virus replication by plaque assay: 2 hrs prior to infection; for virus replication by plaque assay: FIG. 7G, HepG2, MG-132 0.04 and 0.4 μM, ALLN 1 and 10 μM, MOI 10, 48 hrs", "procedure": "The HepG2 cell line is infected with TSV01, a serotype 2 dengue virus (Genbank AY037116; McBride and Vasudevan, 1995), and cells harvested over a succession of time points up to three days post-infection.\nIn a second experiment we applied specific compounds to our in vitro experiment (described above) that are known to alter the function of these (and other) genes in this pathway (Table E1 below).\nHepG2 cells (ATCC) are treated with proteasome inhibitors prior to infection with dengue virus. […]\nHepG2 cells are cultured ON in 24 well plates. […]\nCell culture supernatants are collected and assayed for dengue virus by plaque assay. Plaque forming units per ml are expressed as the mean percentage of the highest number of pfu/ml (DMSO alone)±SEM, (n=3). Cytotoxicity is measured using FDA and results are expressed as the mean percentage compared to DMSO alone±SEM, (n=3). “*” indicates p<0.05 and “**”indicates p<0.005 by students t-test comparing each treatment to DMSO alone.\nThe type 2 dengue virus strain TSV01 is obtained from an outbreak in Townsville, Australia (McBride and Vasudevan 1995) (GenBank, accession number AY037116). TSV01 is cultured in the C6/36 cell line (from the Aedes albopictus mosquito) with virus added to cells in a T175 flask (MOI 0.01) and incubated for 1 hr at 28° C. with brief mixing every 20 min. Media is removed and cells washed in fresh media then media with 5% FBS added and cells incubated for 5 days at 28° C. Cell culture supernatants are removed and centrifuged at 1000×g for 10 min at 4° C. then pooled and stored in aliquots at −80° C. Heat-inactivated virus is prepared by incubating virus samples at 55° C. for 1 hr, with heat-inactivation confirmed by plaque assay.\nFor plaque assay, BHK-21 cells are cultured ON in 24 well plates before media is removed and serial dilutions (10-fold) of cell culture supernatants added to individual wells. Plates are incubated for 1 hr before media is aspirated and replaced with 0.5 ml of 0.8% methyl-cellulose medium (with 2% FBS). Plates are then incubated for 5 days before the media is removed and cells fixed in 4% formaldehyde for 20 min then rinsed in water and stained with crystal violent for 20 min and rinsed again. Plaques are counted manually and concentrations of plaque forming units per ml (pfu/ml) of the sample cell culture supernatant calculated."}, "proteasome": {"target": "proteasome", "settings": "cited from earlier work"}, "NF-kB activation": {"test_system": "NF-kB activation", "settings": "cited from earlier work"}, "26S complex": {"test_system": "26S complex", "settings": "cited from earlier work"}, "20S proteasome": {"test_system": "20S proteasome", "settings": "cited from earlier work"}, "26S proteasome": {"target": "26S proteasome", "settings": "cited from earlier work"}, "[2]": {"target": "calpain I, calpain II, cathepsin B, and cathepsin L", "settings": "one range for the four enzymes; cited from earlier work"}, "calpain I": {"target": "T1, calpain I (Homo sapiens, UniProt P07384)", "T1 sequence (P07384 1-714)": "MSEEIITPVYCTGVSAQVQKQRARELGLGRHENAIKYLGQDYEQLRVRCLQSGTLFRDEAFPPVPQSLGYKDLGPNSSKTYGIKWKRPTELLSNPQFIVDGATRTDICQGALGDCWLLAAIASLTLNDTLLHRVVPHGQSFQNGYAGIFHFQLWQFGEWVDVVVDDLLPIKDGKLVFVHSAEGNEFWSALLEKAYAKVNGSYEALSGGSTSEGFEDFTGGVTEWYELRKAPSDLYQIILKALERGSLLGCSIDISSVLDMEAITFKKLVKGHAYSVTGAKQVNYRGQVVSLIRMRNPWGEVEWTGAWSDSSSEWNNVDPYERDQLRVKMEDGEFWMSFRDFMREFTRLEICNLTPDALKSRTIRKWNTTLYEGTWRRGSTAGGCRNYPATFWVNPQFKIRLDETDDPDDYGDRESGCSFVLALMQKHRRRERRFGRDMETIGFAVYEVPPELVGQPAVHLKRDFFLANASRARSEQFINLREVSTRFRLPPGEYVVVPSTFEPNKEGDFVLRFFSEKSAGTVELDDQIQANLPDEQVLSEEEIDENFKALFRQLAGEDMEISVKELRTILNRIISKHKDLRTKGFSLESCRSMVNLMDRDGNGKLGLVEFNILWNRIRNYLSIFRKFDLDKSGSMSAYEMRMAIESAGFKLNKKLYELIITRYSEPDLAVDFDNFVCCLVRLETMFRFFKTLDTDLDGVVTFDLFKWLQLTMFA", "T1 sequence (P04632 1-268 partner)": "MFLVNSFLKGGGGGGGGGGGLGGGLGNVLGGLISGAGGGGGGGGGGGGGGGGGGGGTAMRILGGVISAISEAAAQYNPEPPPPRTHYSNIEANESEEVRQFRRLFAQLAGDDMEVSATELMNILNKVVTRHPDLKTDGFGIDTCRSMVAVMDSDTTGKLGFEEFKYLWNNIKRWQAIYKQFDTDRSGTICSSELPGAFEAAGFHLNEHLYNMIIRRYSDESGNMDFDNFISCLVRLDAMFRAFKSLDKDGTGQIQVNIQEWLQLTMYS", "settings": "cited from earlier work"}, "calpain II": {"target": "T2, calpain II (Homo sapiens, UniProt P17655)", "T2 sequence (P17655 1-700)": "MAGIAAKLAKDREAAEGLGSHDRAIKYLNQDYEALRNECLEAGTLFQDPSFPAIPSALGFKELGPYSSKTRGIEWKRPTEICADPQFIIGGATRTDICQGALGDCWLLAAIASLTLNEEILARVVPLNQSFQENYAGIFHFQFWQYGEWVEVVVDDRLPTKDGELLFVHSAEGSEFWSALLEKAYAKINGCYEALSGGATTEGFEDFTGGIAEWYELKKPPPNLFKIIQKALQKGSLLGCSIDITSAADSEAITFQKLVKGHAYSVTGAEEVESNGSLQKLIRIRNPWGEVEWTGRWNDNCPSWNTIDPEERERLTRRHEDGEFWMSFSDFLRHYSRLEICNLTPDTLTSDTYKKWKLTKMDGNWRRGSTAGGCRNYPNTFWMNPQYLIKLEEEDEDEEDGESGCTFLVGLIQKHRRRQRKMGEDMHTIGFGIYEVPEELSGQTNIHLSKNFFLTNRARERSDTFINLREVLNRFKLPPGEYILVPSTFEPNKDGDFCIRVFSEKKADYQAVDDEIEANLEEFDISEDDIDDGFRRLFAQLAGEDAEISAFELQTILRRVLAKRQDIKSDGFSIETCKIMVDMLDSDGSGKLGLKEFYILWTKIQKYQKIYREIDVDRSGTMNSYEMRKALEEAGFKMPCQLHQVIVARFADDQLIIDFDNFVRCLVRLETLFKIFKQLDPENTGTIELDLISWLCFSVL", "T2 sequence (P04632 1-268 partner)": "T1 sequence (P04632 1-268 partner)", "settings": "cited from earlier work"}, "cathepsin L": {"target": "cathepsin L (Homo sapiens, UniProt P07711)", "sequence (P07711 114-333, species assumed)": "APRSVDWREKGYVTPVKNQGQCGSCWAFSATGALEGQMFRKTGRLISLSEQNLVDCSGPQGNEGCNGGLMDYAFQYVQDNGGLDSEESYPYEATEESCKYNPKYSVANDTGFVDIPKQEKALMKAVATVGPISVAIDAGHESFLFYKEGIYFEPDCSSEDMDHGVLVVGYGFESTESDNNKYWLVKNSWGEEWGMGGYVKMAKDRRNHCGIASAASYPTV", "settings": "cited from earlier work"}},
  "note": "Where a SMILES comes first, the peptide text is derived from it. [ ]: non-standard residue; d: D form. The star is where a group is joined. Nle = CCCC[C@H](N)C(=O)O; Nva = CCC[C@H](N)C(=O)O; Cbz = O=C(OCc1ccccc1)*",
  "data": [
    {"smiles": "CC(C)C[C@H](NC(=O)OCc1ccccc1)C(=O)N[C@@H](CC(C)C)C(=O)N[C@H](C=O)Cc1ccccc1", "note": "[Proteasome Inhibitor II, Z-Leu-Leu-Phenylalaninal] (Cbz-Leu-Leu-Phe-aldehyde)", "values": [
      {"measurement": "Ki", "setting": "[1]", "result": 0.46, "unit": "µM"}
    ]},
    {"smiles": "CC(C)C[C@@H](C=O)NC(=O)[C@H](CC(C)C)NC(=O)[C@H](CC(C)C)NC(=O)OCc1ccccc1", "note": "[MG-132, Carbobenzoxy-L-leucyl-L-leucyl-L-leucinal] (Cbz-Leu-Leu-Leu-aldehyde)", "values": [
      {"measurement": "virus replication in the HepG2 cell line by plaque assay of the cell culture supernatants", "setting": "dengue virus TSV01", "result": "significantly reduced"},
      {"measurement": "virus replication by plaque assay", "setting": "dengue virus TSV01", "result": "significantly and consistently reduced"},
      {"measurement": "Ki", "setting": "proteasome", "result": 0.004, "unit": "µM"},
      {"measurement": "IC50", "setting": "NF-kB activation", "result": 3, "unit": "µM"},
      {"measurement": "effective concentrations, reduction of degradation of ubiquitin-conjugated proteins", "setting": "26S complex", "result": "micromolar concentrations. Sequence: Z-Leu-"}
    ]},
    {"smiles": "CC(C)[C@H](O)[C@@]12NC(=O)[C@H](C)[C@@H]1OC2=O", "note": "[clasto-Lactacystin β-Lactone]", "values": [
      {"measurement": "sensitivity relative to its precursor, lactacystin", "setting": "20S proteasome; in vitro", "result": "~10-fold more sensitive than its precursor,"}
    ]},
    {"smiles": "C[C@@H]1C[C@H]2[C@@H]3CCC4=CC(=O)C=C[C@]4(C)[C@@]3(F)[C@@H](O)C[C@]2(C)[C@@]1(O)C(=O)CO", "note": "[Dexamethasone, dexamethasone]", "values": [
      {"measurement": "effect on viral replication", "setting": "dengue virus TSV01; HepG2 infection model, data not shown", "result": "no effect"}
    ]},
    {"smiles": "CCC[C@@H](C=O)NC(=O)[C@H](CC(C)C)NC(=O)[C@H](CC(C)C)NC(=O)OCc1ccccc1", "note": "[MG-115, Z-Leu-Leu-Norvalinal] (Cbz-Leu-Leu-[Nva]-aldehyde)", "values": [
      {"measurement": "Ki", "setting": "20S proteasome", "result": 0.021, "unit": "µM"},
      {"measurement": "Ki", "setting": "26S proteasome", "result": 0.035, "unit": "µM"}
    ]},
    {"smiles": "CSCC[C@@H](C=O)NC(=O)[C@H](CC(C)C)NC(=O)[C@H](CC(C)C)NC(C)=O", "note": "[Calpain Inhibitor II, Ac-Leu-Leu-Methional] (Ac-Leu-Leu-Met-aldehyde)", "values": [
      {"measurement": "inhibition of proteasome activity", "setting": "proteasome", "result": "does not"},
      {"measurement": "Ki", "setting": "[2]", "result": "0.12 to 0.6", "unit": "µM"}
    ]},
    {"smiles": "CCCC[C@@H](C=O)NC(=O)[C@H](CC(C)C)NC(=O)[C@H](CC(C)C)NC(C)=O", "note": "[ALLN, N-Acetyl-Leu-Leu-Nle-CHO] (Ac-Leu-Leu-[Nle]-aldehyde)", "values": [
      {"measurement": "virus replication in the HepG2 cell line by plaque assay of the cell culture supernatants", "setting": "dengue virus TSV01", "result": "significantly reduced"},
      {"measurement": "virus replication by plaque assay", "setting": "dengue virus TSV01", "result": "significantly and consistently reduced"},
      {"measurement": "Ki", "setting": "proteasome", "result": 6, "unit": "µM"},
      {"measurement": "Ki", "setting": "calpain I", "result": 0.19, "unit": "µM"},
      {"measurement": "Ki", "setting": "calpain II", "result": 0.22, "unit": "µM"},
      {"measurement": "Ki", "setting": "cathepsin L", "result": 0.0005, "unit": "µM"},
      {"measurement": "Ki", "setting": "[2]", "result": "0.15 to 0.5", "unit": "µM"}
    ]}
  ]
}
